Data from US20230096766A1, “AMINO ACID HAVING FUNCTIONAL GROUP CAPABLE OF INTERMOLECULAR HYDROGEN BONDING, PEPTIDE COMPOUND CONTAINING SAME AND METHOD FOR PRODUCTION THEREOF” (Chugai Seiyaku Kabushiki Kaisha, priority 2018, published 2023).
*1 amine or outer side, *2 acyl side, *3 side chain or, on linkers, in order; H or OH if unused. Where a SMILES comes first, the peptide text is derived from it. Bridges are numbered along the chain shown (N, C = ends). [ ]: non-standard residue; d: D form. The star is where a group is joined. ξ: configuration not given here. NMeAbu(3,3-F2-piperidino) = CN[C@@H](CCN1CCCC(F)(F)C1)C(=O)O; dhPhe(4-CONHMe,3-OMe) = CNC(=O)c1ccc(CC[C@@H](N)C(=O)O)cc1OC; NMePhe(3-Cl) = CN[C@@H](Cc1cccc(Cl)c1)C(=O)O; NMehPhe = CN[C@@H](CCc1ccccc1)C(=O)O; X9 = O=C([C@@H](CN[*:1])COCCO)[*:2]; Propyl(2,2-Me2,3-OH) = CC(C)(CO)C*; X7 = O=C(C[C@H](COCCO)N[*:1])[*:2]; NMeF = CN[C@@H](Cc1ccccc1)C(=O)O; NMeGABA = CN(CCCC(=O)[*:2])[*:1]; Butyl(3-Me,3-OH) = CC(C)(O)CC*; NMeL = CN[C@@H](CC(C)C)C(=O)O; Thr(3ξ) = CC(O)[C@H](N)C(=O)O; Propyl(2R-OH) = C[C@@H](O)C*; NMeV = CN[C@H](C(=O)O)C(C)C; NMeAbu = CC[C@H](NC)C(=O)O; NMeA = CN[C@@H](C)C(=O)O; Piperidide = C1CCN(*)CC1; NBuGly = CCCCNCC(=O)O; NPrGly = CCCNCC(=O)O; Propyl(3-OH) = OCCC*; Sar = CNCC(=O)O; tBu = CC(C)(C)*

Experiment: in vitro
Details: human

| SMILES | Papp (Caco-2, Caco-2 (cm/sec)) [×10⁻⁶ cm/s] | Papp (Caco-2, Caco-2) [×10⁻⁶ cm/s] |
| --- | --- | --- |
| CCCCN1CC(=O)N(C)[C@@H](CC(C)C)C(=O)N[C@@H](COCCO)CC(=O)N(C)[C@@H](Cc2ccccc2)C(=O)N(C)[C@@H](CC(C)C)C(=O)N[C@H](C(=O)N2CCCCC2)CC(=O)N[C@H](CC(C)C)C(=O)N(C)[C@@H](CC(C)C)C(=O)N[C@@H](Cc2ccccc2)C(=O)N(C)[C@@H](CC(C)C)C(=O)N[C@@H]([C@@H](C)O)C1=O [AP21] ([dL][NMeL]F[NMeL]T[NBuGly][NMeL][X7][NMeF][NMeL]D-Piperidide; lactam N-11) | 0.21 |  |
| CC(C)C[C@H]1C(=O)N[C@@H]([C@@H](C)O)C(=O)N(C)CC(=O)N(C)[C@@H](Cc2cccc(Cl)c2)C(=O)N(C)[C@@H](CC(C)C)C(=O)N[C@@H](COC(C)(C)C)C(=O)N(C)[C@@H](CC(C)C)C(=O)N[C@H](C(=O)N2CCCCC2)CC(=O)N(C)CC(=O)N(C)[C@@H](CCc2ccccc2)C(=O)N[C@@H](COCCC(C)(C)O)C(=O)N1C [AP57] ([Sar][NMehPhe]S(Butyl(3-Me,3-OH))[NMeL]T[Sar][NMePhe(3-Cl)][NMeL]S(tBu)[NMeL]D-Piperidide; lactam N-11) | 0.83 |  |
| CCCCN1CC(=O)N(C)[C@@H](Cc2ccccc2)C(=O)N[C@@H]([C@@H](C)CC)C(=O)N(C)[C@@H](CC(C)C)C(=O)N[C@@H](C(C)O)C(=O)N(CCC)CC(=O)N(C)[C@@H](Cc2ccccc2)C(=O)N(C)[C@@H](CC(C)C)C(=O)N[C@@H](COCCO)CC(=O)N(C)[C@@H](CC(C)C)C(=O)N[C@H](C(=O)N2CCCCC2)CC1=O (stereo partly drawn) [AP26] ([NBuGly][NMeF]I[NMeL][Thr(3ξ)][NPrGly][NMeF][NMeL][X7][NMeL]D-Piperidide; lactam N-11) | 0.37 |  |
| CC(C)C[C@H]1C(=O)N[C@@H](C(C)C)C(=O)N(C)[C@@H](Cc2ccccc2)C(=O)N(C)[C@@H](Cc2ccccc2)C(=O)N[C@@H](COC(C)(C)C)C(=O)N(C)[C@@H](CC(C)C)C(=O)N[C@@H](COC[C@@H](C)O)C(=O)N(C)[C@@H](CC(C)C)C(=O)N(C)[C@@H](CC(C)C)C(=O)N[C@H](C(=O)N2CCCCC2)CC(=O)N(C)CCCC(=O)N1C [AP83] ([NMeGABA][NMeL]V[NMeF][NMeF]S(tBu)[NMeL]S(Propyl(2R-OH))[NMeL][NMeL]D-Piperidide; lactam N-11) | 1.3 |  |
| CCCCN1CC(=O)N(C)[C@@H](CC(C)C)C(=O)N[C@@H](COC(C)(C)C)C(=O)N(C)[C@@H](Cc2ccccc2)C(=O)N(C)[C@@H](C(C)C)C(=O)N[C@H](C(=O)N2CCCCC2)CC(=O)N[C@H](C)C(=O)N(C)[C@@H](Cc2ccccc2)C(=O)N[C@@H](CC(C)C)C(=O)N(C)[C@@H](CCN2CCCC(F)(F)C2)C(=O)N[C@@H]([C@@H](C)O)C1=O [pd386] ([dA][NMeF]L[NMeAbu(3,3-F2-piperidino)]T[NBuGly][NMeL]S(tBu)[NMeF][NMeV]D-Piperidide; lactam N-11) |  | 2.3 |
| CCCCN1CC(=O)N(C)[C@@H](CC(C)C)C(=O)N[C@@H](COCCCO)C(=O)N(C)[C@@H](Cc2cccc(Cl)c2)C(=O)N(C)[C@@H](CC(C)C)C(=O)N[C@H](C(=O)N2CCCCC2)CC(=O)N[C@H](C(C)C)C(=O)N(C)[C@@H](Cc2ccccc2)C(=O)N[C@@H](CC(C)C)C(=O)N(C)[C@@H](CC(C)C)C(=O)N[C@@H]([C@@H](C)O)C1=O [AP98] ([dV][NMeF]L[NMeL]T[NBuGly][NMeL]S(Propyl(3-OH))[NMePhe(3-Cl)][NMeL]D-Piperidide; lactam N-11) | 0.16 |  |
| CC[C@H]1C(=O)N[C@H](CCc2ccc(C(=O)NC)c(OC)c2)C(=O)N(C)[C@@H](CC(C)C)C(=O)N(C)[C@@H](CC(C)C)C(=O)N[C@@H](C(C)C)C(=O)N(C)[C@@H](Cc2ccccc2)C(=O)N(C)[C@@H](CC(C)C)C(=O)N[C@@H]([C@@H](C)O)C(=O)N(C)CC(=O)N(C)[C@@H](CC(C)C)C(=O)N[C@H](C(=O)N2CCCCC2)CC(=O)N1C [AP213] ([NMeAbu][dhPhe(4-CONHMe,3-OMe)][NMeL][NMeL]V[NMeF][NMeL]T[Sar][NMeL]D-Piperidide; lactam N-11) | 0.34 |  |
| CC[C@H](C)[C@@H]1NC(=O)[C@H](CC(C)C)N(C)C(=O)CCCN(C)C(=O)C[C@@H](C(=O)N2CCCCC2)NC(=O)[C@H](CC(C)C)N(C)C(=O)[C@H](CC(C)C)N(C)C(=O)[C@H]([C@@H](C)O)NC(=O)[C@H](CC(C)C)N(C)C(=O)[C@H](COCCO)CNC(=O)[C@H](CC(C)C)N(C)C(=O)[C@H](Cc2cccc(Cl)c2)N(C)C1=O [AP130] ([NMeGABA][NMeL]I[NMePhe(3-Cl)][NMeL][X9][NMeL]T[NMeL][NMeL]D-Piperidide; lactam N-11) | 0.46 |  |
| CCCCN1CC(=O)N(C)[C@@H](Cc2ccccc2)C(=O)N(C)[C@@H](C(C)C)C(=O)N[C@@H](COC(C)(C)C)C(=O)N(C)[C@@H](CC(C)C)C(=O)N[C@H](C(=O)N2CCCCC2)CC(=O)N(C)CC(=O)N(C)[C@@H](Cc2cccc(Cl)c2)C(=O)N[C@@H](COCC(C)(C)CO)C(=O)N(C)[C@@H](CC(C)C)C(=O)N[C@@H]([C@@H](C)O)C1=O [AP123] ([Sar][NMePhe(3-Cl)]S(Propyl(2,2-Me2,3-OH))[NMeL]T[NBuGly][NMeF][NMeV]S(tBu)[NMeL]D-Piperidide; lactam N-11) | 0.8 |  |
| CCCCN1CC(=O)N(C)[C@@H](CCN2CCCC(F)(F)C2)C(=O)N[C@H](C(=O)N2CCCCC2)CC(=O)N(C)[C@@H](C)C(=O)N[C@@H](CC(C)C)C(=O)N(C)[C@@H](CC(C)C)C(=O)N(C)[C@@H](Cc2ccccc2)C(=O)N[C@@H](CC(C)C)C(=O)N(C)[C@@H](Cc2ccccc2)C(=O)N(C)[C@@H](C)C(=O)N[C@@H]([C@@H](C)O)C1=O [pd392] ([NMeA]L[NMeL][NMeF]L[NMeF][NMeA]T[NBuGly][NMeAbu(3,3-F2-piperidino)]D-Piperidide; lactam N-11) |  | 3.5 |
